Results from US4058601A, “Method for treating alcoholism” (Chugai Seiyaku Kabushiki Kaisha, priority 1974, dated 1977).
“And” between values parts separate entries of the source, which are not always exact repeats. Equal values may be shown once. “Also recorded” adds a separate entry of the source.

Key:
Neutral Lipid in Liver = experiment: Inhibiting action for accumulation of neutral lipid in liver (ethanol-loaded rats); assay type: in vivo, Sprague Dawley strain male rats
Experimental: Inhibiting Action for Accumulation of Neutral Lipid in Liver
The Sprague Dawley strain male rats weighing 180±30 g which had been fed rat food commercially available as CLEA CE-2 and prevented from eating food for 16 hours just before the experiment was started were divided into groups of 10 rats each. Each rat was orally administered with disodium uridine-5'-diphosphate (UDP-2Na) as a suspension in corn oil in a dose of 100 mg/kg body weight. Thirty minutes after the administration, each rat was orally administered with ethanol as a 50% aqueous solution in a dose of 6 g/kg. body weight and, 24 hours after the administration, the liver was taken out and an amount of neutral lipid contained therein was determined by the Van Handel and Zilver-Smit method. For control, a glucose aqueous solution having a caloric content equivalent to the same amount of ethanol was used instead of ethanol.

[1] = tested on: rat (behaviour after ethanol); experiment: Behaviour and righting reflex of rats, UDP-2Na given 30 min before ethanol (Example 2); assay type: in vivo, Sprague Dawley strain male rats; conditions: UDP-2Na 100 mg/kg p.o. 30 min before ethanol 6 g/kg
Experimental: The Sprague Dawley strain male rats weighing 260±30 g which had been fed rat food commercially available as CLEA CE-2 and prevented from eating food for 12 hours just before the experiment were divided into groups each of 10 - 13 members each. Each rat was orally administered disodium uridine-5'-diphosphate (UDP-2Na) in the form of a suspension in corn oil in an amount 100 mg/kg body weight. Thirty minutes after the administration, ethanol as a 50% aqueous solution was orally administered in a dose of 6 g/kg. body weight and then behavior of the rat was observed over 24 hours.

[2] = tested on: rat (behaviour after ethanol); experiment: Behaviour and righting reflex of rats, UDP-2Na given 30 min after ethanol (Example 3); assay type: in vivo, Sprague Dawley strain male rats; conditions: UDP-2Na 100 mg/kg p.o. 30 min after ethanol 6 g/kg
Experimental: The Sprague Dawley strain male rats weighing 160±30 g which were fed rat food commercially available as CLEA CE-2 and prevented from eating food for 12 hours just before the experiment was started. Each rat was administered with ethanol as a 50% aqueous solution in a dose of 6 g/kg body weight. Thirty minutes after the administration, the rat was orally administered with a suspension of disodium uridine-5'-diphosphate (UDP-2Na) in corn oil in a dose of 100 mg/kg. body weight based on UDP-2Na. The behavior of the rat was observed over 24 hours after the last administration.

[3] = Measurement of alcohol level in blood (alcoholic dehydrogenase method); assay type: in vivo, Sprague Dawley strain female rats
Experimental: Measurement of Alcohol Level in Blood
(§1) In this Example, Sprague Dawley strain female rats (weighing 150±20 g) divided into groups of 9 - 12 members each were used.
(§2) After abstention from food overnight each rat was orally administered disodium uridine-5'-diphosphate (UDP-2Na) in the form of a physiological saline solution in a dose of 100 mg/kg. body weight as an effective ingredient and, 30 minutes after the administration, the rat was administered with ethanol in a dose of 6 g/kg body weight. Four hours and thirty minutes after the administration of ethanol, the rat was etherized, and blood was sampled from its heart to determine alcohol level in the blood by a alcoholic dehydrogenase method. For control, a physiological saline solution was used instead of the UDP-2Na solution.

[4] = tested on: rat (behavior after ethanol); experiment: Behavior of rats in the blood alcohol experiment (Example 4); assay type: in vivo, Sprague Dawley strain female rats; conditions: UDP-2Na 100 mg/kg p.o. 30 min before ethanol 6 g/kg; ditto mark (") = normal walking
Experimental: as §1, §2

In the case of `O=c1ccn([C@@H]2O[C@H](COP(=O)([O-])OP(=O)([O-])O)[C@@H](O)[C@H]2O)c(=O)[nH]1.[Na+].[Na+]` [UDP . 2Na, disodium uridine-5'-diphosphate], the “% inhibition (neutral lipid accumulation in liver)” value (Neutral Lipid in Liver; UDP-2Na 100 mg/kg p.o. 30 min before ethanol 6 g/kg p.o., 24 h) is reported as 95.7%, the “Neutral Lipid in Liver” value (Neutral Lipid in Liver; UDP-2Na 100 mg/kg p.o. in corn oil 30 min before ethanol 6 g/kg p.o., liver taken 24 h after) is reported as 12.69 ± 7.85 mg/g and the “Behaviour: Deep Sleep” value ([1]; 3 hrs after alcohol) is reported as 1 heads. The “Behaviour: Lying Flat” value ([1]; 3 hrs after alcohol) was 5 heads, the “Behaviour: Normal Walking” value ([1]; 3 hrs after alcohol) was 7 heads and the “Righting Reflex +” value ([1]; 3 hrs after alcohol) was 12 heads. The “Righting Reflex -” value ([1]; 3 hrs after alcohol) was 1 heads, the “Behaviour: Deep Sleep” value ([1]; 6 hrs after alcohol) was 1 heads and the “Behaviour: Lying Flat” value ([1]; 6 hrs after alcohol) was 8 heads. The “Behaviour: Normal Walking” value ([1]; 6 hrs after alcohol) was 4 heads, the “Righting Reflex +” value ([1]; 6 hrs after alcohol) was 12 heads and the “Righting Reflex -” value ([1]; 6 hrs after alcohol) was 1 heads. The “Behaviour: Deep Sleep” value ([1]; 9 hrs after alcohol) was 0 heads, the “Behaviour: Lying Flat” value ([1]; 9 hrs after alcohol) was 7 heads and the “Behaviour: Normal Walking” value ([1]; 9 hrs after alcohol) was 6 heads. For the same molecule, the “Righting Reflex +” value ([1]; 9 hrs after alcohol) was 13 heads, the “Righting Reflex -” value ([1]; 9 hrs after alcohol) was 0 heads and the “Behaviour: Deep Sleep” value ([1]; 12 hrs after alcohol) was 0 heads. The “Behaviour: Lying Flat” value ([1]; 12 hrs after alcohol) was 0 heads, the “Behaviour: Normal Walking” value ([1]; 12 hrs after alcohol) was 13 heads and the “Righting Reflex +” value ([1]; 12 hrs after alcohol) was 13 heads. The “Righting Reflex -” value ([1]; 12 hrs after alcohol) was 0 heads, the “Behaviour: Deep Sleep” value ([1]; 18 hrs after alcohol) was 0 heads and the “Behaviour: Lying Flat” value ([1]; 18 hrs after alcohol) was 0 heads. The “Behaviour: Normal Walking” value ([1]; 18 hrs after alcohol) was 13 heads, the “Righting Reflex +” value ([1]; 18 hrs after alcohol) was 13 heads and the “Righting Reflex -” value ([1]; 18 hrs after alcohol) was 0 heads. The “Behaviour: Deep Sleep” value ([2]; 3 hrs after alcohol) was 1 heads, the “Behaviour: Lying Flat” value ([2]; 3 hrs after alcohol) was 6 heads and the “Behaviour: Normal Walking” value ([2]; 3 hrs after alcohol) was 4 heads. For the same molecule, the “Righting Reflex +” value ([2]; 3 hrs after alcohol) was 10 heads, the “Righting Reflex -” value ([2]; 3 hrs after alcohol) was 1 heads and the “Behaviour: Deep Sleep” value ([2]; 6 hrs after alcohol) was 1 heads. The “Behaviour: Lying Flat” value ([2]; 6 hrs after alcohol) was 7 heads, the “Behaviour: Normal Walking” value ([2]; 6 hrs after alcohol) was 3 heads and the “Righting Reflex +” value ([2]; 6 hrs after alcohol) was 9 heads. The “Righting Reflex -” value ([2]; 6 hrs after alcohol) was 2 heads, the “Behaviour: Deep Sleep” value ([2]; 9 hrs after alcohol) was 1 heads and the “Behaviour: Lying Flat” value ([2]; 9 hrs after alcohol) was 6 heads. For the same molecule, the “Behaviour: Normal Walking” value ([2]; 9 hrs after alcohol) was 4 heads, the “Righting Reflex +” value ([2]; 9 hrs after alcohol) was 10 heads and the “Righting Reflex -” value ([2]; 9 hrs after alcohol) was 1 heads. The “Behaviour: Deep Sleep” value ([2]; 12 hrs after alcohol) was 0 heads, the “Behaviour: Lying Flat” value ([2]; 12 hrs after alcohol) was 1 heads and the “Behaviour: Normal Walking” value ([2]; 12 hrs after alcohol) was 10 heads. The “Righting Reflex +” value ([2]; 12 hrs after alcohol) was 11 heads, the “Righting Reflex -” value ([2]; 12 hrs after alcohol) was 0 heads and the “Behaviour: Deep Sleep” value ([2]; 18 hrs after alcohol) was 0 heads. For the same molecule, the “Behaviour: Lying Flat” value ([2]; 18 hrs after alcohol) was 0 heads, the “Behaviour: Normal Walking” value ([2]; 18 hrs after alcohol) was 11 heads and the “Righting Reflex +” value ([2]; 18 hrs after alcohol) was 11 heads. The “Righting Reflex -” value ([2]; 18 hrs after alcohol) was 0 heads, the “Ethanol level in Blood, Average” value ([3]; UDP-2Na 100 mg/kg p.o. in saline 30 min before ethanol 6 g/kg, 4 h 30 min after ethanol, *Confidence Limits: 98%) was 1.51 ± 1.09 mg/mL and the “Ethanol level in Blood (individual test animals No. 1-12)” value ([3]; UDP-2Na 100 mg/kg p.o. in saline 30 min before ethanol 6 g/kg, blood 4 h 30 min after ethanol) was 2.11 mg/mL and 1.77 mg/mL and 0.57 mg/mL and 0.24 mg/mL and 0.75 mg/mL and 2.10 mg/mL and 1.08 mg/mL and 1.35 mg/mL and 1.72 mg/mL and 1.50 mg/mL and 2.16 mg/mL and 2.74 mg/mL. The “alcohol level in blood in comparison with the control” value ([3]; UDP-2Na 100 mg/kg p.o., result in words) was “significantly lowered” and the “Behavior (individual test animals No. 1-12)” value [4] was “normal walking; also recorded: lying flat; also recorded: deep sleep”.
